From patent US20230143604A1, “QW DOSING OF GIP RECEPTOR AGONIST PEPTIDE COMPOUNDS AND USES THEREOF” (TAKEDA PHARMACEUTICAL COMPANY LIMITED, priority 2020, published 2023)
Starred links: 1 amine or outer side, 2 acyl side, 3 side chain; linkers in the order of their positions; H or OH if unused. Positions of bridges follow the written chain, without caps; N, C: chain ends. Non-standard residues stand in square brackets, D forms with d. Residues, ends and D or L forms follow the SMILES beside them. Groups on a side chain read outwards from the residue. Chains are numbered I, II in the order given. *: point of attachment. C18 diacid = O=C(O)CCCCCCCCCCCCCCCCC(=O)*; γGlu = O=C(O)[C@H](CCC(=O)[*:2])N[*:1]; NMeY = CN[C@@H](Cc1ccc(O)cc1)C(=O)O; AEEA = NCCOCCOCC(=O)O; Aib = CC(C)(N)C(=O)O

Test: physchem
Conditions: pH 7.4, aqueous buffer
Procedure, shortened: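 Solubility at pH 7.4 determined by stepwise addition of 200 mM phosphate buffer in 100 μL increments to 3 mg peptide, mixing briefly each time, until no insoluble material remained, then measured by liquid chromatography.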

| SMILES | solubility [mg/mL] |
| --- | --- |
| CC[C@H](C)[C@H](NC(=O)[C@H](CO)NC(=O)[C@H](Cc1ccc(O)cc1)NC(=O)[C@H](CC(=O)O)NC(=O)[C@H](CO)NC(=O)[C@@H](NC(=O)[C@H](Cc1ccccc1)NC(=O)[C@@H](NC(=O)CNC(=O)[C@H](CCC(=O)O)NC(=O)C(C)(C)NC(=O)[C@H](Cc1ccc(O)cc1)NC)[C@@H](C)O)[C@@H](C)CC)C(=O)N[C@@H](C)C(=O)N[C@@H](CCCCNC(=O)CNC(=O)CNC(=O)CNC(=O)CNC(=O)CNC(=O)CCCCCCCCCCCCCCCCC(=O)O)C(=O)N[C@@H](CC(=O)O)C(=O)N[C@@H](CCCCN)C(=O)NC(C)(C)C(=O)N[C@@H](Cc1c[nH]cn1)C(=O)N[C@@H](CCC(N)=O)C(=O)NC(C)(C)C(=O)N[C@@H](CC(N)=O)C(=O)N[C@@H](Cc1ccccc1)C(=O)N[C@H](C(=O)N[C@@H](CC(N)=O)C(=O)N[C@@H](Cc1c[nH]c2ccccc12)C(=O)N[C@@H](CC(C)C)C(=O)N[C@@H](CC(C)C)C(=O)N[C@@H](C)C(=O)N[C@@H](CCC(N)=O)C(=O)N[C@@H](CCCCN)C(=O)NCC(=O)N[C@@H](CCCCN)C(=O)N[C@@H](CCCCN)C(=O)N[C@@H](CC(N)=O)C(=O)N[C@@H](CC(N)=O)C(=O)N[C@@H](Cc1c[nH]c2ccccc12)C(=O)N[C@@H](CCCCN)C(=O)N[C@@H](Cc1c[nH]cn1)C(=O)N[C@@H](CC(N)=O)C(N)=O)C(C)C [Compound 281] | < 15 |
| CC[C@H](C)[C@H](NC(=O)[C@H](Cc1ccccc1)NC(=O)[C@@H](NC(=O)CNC(=O)[C@H](CCC(=O)O)NC(=O)C(C)(C)NC(=O)[C@H](Cc1ccc(O)cc1)NC)[C@@H](C)O)C(=O)N[C@@H](CO)C(=O)N[C@@H](CC(=O)O)C(=O)N[C@@H](Cc1ccc(O)cc1)C(=O)N[C@@H](CO)C(=O)N[C@H](C(=O)NC(C)(C)C(=O)N[C@@H](CC(C)C)C(=O)N[C@@H](CC(=O)O)C(=O)N[C@@H](CCCNC(=N)N)C(=O)N[C@@H](CCCCNC(=O)CNC(=O)CNC(=O)CNC(=O)CNC(=O)CNC(=O)CCCCCCCCCCCCCCCCC(=O)O)C(=O)N[C@@H](C)C(=O)N[C@@H](CCC(N)=O)C(=O)NC(C)(C)C(=O)N[C@@H](CC(=O)O)C(=O)N[C@@H](Cc1ccccc1)C(=O)N[C@H](C(=O)N[C@@H](CC(N)=O)C(=O)N[C@@H](Cc1c[nH]c2ccccc12)C(=O)N[C@@H](CC(C)C)C(=O)N[C@@H](CC(C)C)C(=O)N[C@@H](C)C(=O)N[C@@H](CCC(N)=O)C(=O)N[C@@H](CCCNC(=N)N)C(=O)NCC(=O)O)C(C)C)[C@@H](C)CC [Compound 284] | < 15 |
| CC[C@H](C)[C@H](NC(=O)[C@H](CCCNC(=N)N)NC(=O)[C@H](CC(=O)O)NC(=O)[C@H](CCCCNC(=O)CNC(=O)CNC(=O)CNC(=O)CNC(=O)CNC(=O)CCCCCCCCCCCCCCCCC(=O)O)NC(=O)[C@H](C)NC(=O)[C@@H](NC(=O)[C@H](CO)NC(=O)[C@H](Cc1ccc(O)cc1)NC(=O)[C@H](CC(=O)O)NC(=O)[C@H](CO)NC(=O)[C@@H](NC(=O)[C@H](Cc1ccccc1)NC(=O)[C@@H](NC(=O)CNC(=O)[C@H](CCC(=O)O)NC(=O)C(C)(C)NC(=O)[C@H](Cc1ccc(O)cc1)NC)[C@@H](C)O)[C@@H](C)CC)[C@@H](C)CC)C(=O)N[C@@H](C)C(=O)N[C@@H](CCC(N)=O)C(=O)N[C@@H](CCC(N)=O)C(=O)N[C@@H](CC(=O)O)C(=O)N[C@@H](Cc1ccccc1)C(=O)N[C@H](C(=O)N[C@@H](CC(N)=O)C(=O)N[C@@H](Cc1c[nH]c2ccccc12)C(=O)N[C@@H](CC(C)C)C(=O)N[C@@H](CC(C)C)C(=O)N[C@@H](C)C(=O)N[C@@H](CCC(N)=O)C(=O)N[C@@H](CCCNC(=N)N)C(=O)N1CCC[C@H]1C(=O)N[C@@H](CO)C(=O)N[C@@H](CO)C(=O)NCC(=O)O)C(C)C [Compound 285] | < 6 |
| CC[C@H](C)[C@H](NC(=O)[C@H](CCCNC(=N)N)NC(=O)[C@H](CC(=O)O)NC(=O)[C@H](CC(C)C)NC(=O)[C@H](C)NC(=O)[C@@H](NC(=O)[C@H](CO)NC(=O)[C@H](Cc1ccc(O)cc1)NC(=O)[C@H](CC(=O)O)NC(=O)[C@H](CO)NC(=O)[C@@H](NC(=O)[C@H](Cc1ccccc1)NC(=O)[C@@H](NC(=O)CNC(=O)[C@H](CCC(=O)O)NC(=O)C(C)(C)NC(=O)[C@H](Cc1ccc(O)cc1)NC)[C@@H](C)O)[C@@H](C)CC)[C@@H](C)CC)C(=O)N[C@@H](C)C(=O)N[C@@H](CCC(N)=O)C(=O)N[C@@H](CCC(N)=O)C(=O)N[C@@H](CCCCNC(=O)COCCOCCNC(=O)COCCOCCNC(=O)CC[C@H](NC(=O)CC[C@H](NC(=O)CCCCCCCCCCCCCCCCC(=O)O)C(=O)O)C(=O)O)C(=O)N[C@@H](Cc1ccccc1)C(=O)N[C@H](C(=O)N[C@@H](CC(N)=O)C(=O)N[C@@H](Cc1c[nH]c2ccccc12)C(=O)N[C@@H](CC(C)C)C(=O)N[C@@H](CC(C)C)C(=O)N[C@@H](C)C(=O)N[C@@H](CCC(N)=O)C(=O)N[C@@H](CCCNC(=N)N)C(=O)NCC(=O)O)C(C)C [Compound 286] (H-[NMeY][Aib]EGTFISDYSIALDRIAQQK([AEEA-AEEA-γGlu-γGlu-C18 diacid])FVNWLLAQRG-OH) | < 6 |
| CC[C@H](C)[C@H](NC(=O)[C@H](CO)NC(=O)[C@H](Cc1ccc(O)cc1)NC(=O)[C@H](CC(=O)O)NC(=O)[C@H](CO)NC(=O)[C@@H](NC(=O)[C@H](Cc1ccccc1)NC(=O)[C@@H](NC(=O)CNC(=O)[C@H](CCC(=O)O)NC(=O)C(C)(C)NC(=O)[C@H](Cc1ccc(O)cc1)NC)[C@@H](C)O)[C@@H](C)CC)C(=O)N[C@@H](C)C(=O)N[C@@H](CC(C)C)C(=O)N[C@@H](CC(=O)O)C(=O)N[C@@H](CCCNC(=N)N)C(=O)N[C@H](C(=O)N[C@@H](CCCCNC(=O)COCCOCCNC(=O)COCCOCCNC(=O)CC[C@H](NC(=O)CC[C@H](NC(=O)CCCCCCCCCCCCCCCCC(=O)O)C(=O)O)C(=O)O)C(=O)N[C@@H](CCC(N)=O)C(=O)N[C@@H](CCC(N)=O)C(=O)N[C@@H](CC(=O)O)C(=O)N[C@@H](Cc1ccccc1)C(=O)N[C@H](C(=O)N[C@@H](CC(N)=O)C(=O)N[C@@H](Cc1c[nH]c2ccccc12)C(=O)N[C@@H](CC(C)C)C(=O)N[C@@H](CC(C)C)C(=O)N[C@@H](C)C(=O)N[C@@H](CCC(N)=O)C(=O)N[C@@H](CCCNC(=N)N)C(=O)N1CCC[C@H]1C(=O)N[C@@H](CO)C(=O)N[C@@H](CO)C(=O)NCC(=O)O)C(C)C)[C@@H](C)CC [Compound 287] (H-[NMeY][Aib]EGTFISDYSIALDRIK([AEEA-AEEA-γGlu-γGlu-C18 diacid])QQDFVNWLLAQRPSSG-OH) | < 6 |
| CC[C@H](C)[C@H](NC(=O)[C@H](CO)NC(=O)[C@H](Cc1ccc(O)cc1)NC(=O)[C@H](CC(=O)O)NC(=O)[C@H](CO)NC(=O)[C@@H](NC(=O)[C@H](Cc1ccccc1)NC(=O)[C@@H](NC(=O)CNC(=O)[C@H](CCC(=O)O)NC(=O)C(C)(C)NC(=O)[C@H](Cc1ccc(O)cc1)NC)[C@@H](C)O)[C@@H](C)CC)C(=O)N[C@@H](C)C(=O)N[C@@H](CC(C)C)C(=O)N[C@@H](CC(=O)O)C(=O)N[C@@H](CCCNC(=N)N)C(=O)N[C@@H](CCCCNC(=O)CNC(=O)CNC(=O)CNC(=O)CNC(=O)CNC(=O)CCCCCCCCCCCCCCCCC(=O)O)C(=O)N[C@@H](C)C(=O)N[C@@H](CCC(N)=O)C(=O)N[C@@H](CCC(N)=O)C(=O)N[C@@H](CC(=O)O)C(=O)N[C@@H](Cc1ccccc1)C(=O)N[C@H](C(=O)N[C@@H](CC(N)=O)C(=O)N[C@@H](Cc1c[nH]c2ccccc12)C(=O)N[C@@H](CC(C)C)C(=O)N[C@@H](CC(C)C)C(=O)N[C@@H](C)C(=O)N[C@@H](CCC(N)=O)C(=O)N[C@@H](CCCNC(=N)N)C(=O)N1CCC[C@H]1C(=O)N[C@@H](CO)C(=O)N[C@@H](CO)C(=O)NCC(=O)O)C(C)C [Compound 288] | < 6 |
| CC[C@H](C)[C@H](NC(=O)[C@H](CO)NC(=O)[C@H](Cc1ccc(O)cc1)NC(=O)[C@H](CC(=O)O)NC(=O)[C@H](CO)NC(=O)[C@@H](NC(=O)[C@H](Cc1ccccc1)NC(=O)[C@@H](NC(=O)CNC(=O)[C@H](CCC(=O)O)NC(=O)C(C)(C)NC(=O)[C@H](Cc1ccc(O)cc1)NC)[C@@H](C)O)[C@@H](C)CC)C(=O)N[C@@H](C)C(=O)N[C@@H](CCCCNC(=O)CNC(=O)CNC(=O)[C@@H]1CCCN1C(=O)[C@H](C)NC(=O)[C@@H]1CCCN1C(=O)[C@H](C)NC(=O)[C@@H]1CCCN1C(=O)CCCCCCCCCCCCCCCCC(=O)O)C(=O)N[C@@H](CC(=O)O)C(=O)N[C@@H](CCCNC(=N)N)C(=O)NC(C)(C)C(=O)N[C@@H](C)C(=O)N[C@@H](CCC(N)=O)C(=O)NC(C)(C)C(=O)N[C@@H](CC(=O)O)C(=O)N[C@@H](Cc1ccccc1)C(=O)N[C@H](C(=O)N[C@@H](CC(N)=O)C(=O)N[C@@H](Cc1c[nH]c2ccccc12)C(=O)N[C@@H](CC(C)C)C(=O)N[C@@H](CC(C)C)C(=O)N[C@@H](C)C(=O)N[C@@H](CCC(N)=O)C(=O)N[C@@H](CCCCN)C(=O)NCC(=O)O)C(C)C [Compound 289] (I: H-[NMeY][Aib]EGTFISDYSIAKDR[Aib]AQ[Aib]DFVNWLLAQKG-OH / II: {C18 diacid}-PAPAPGG; amide I:14-II:C) | ≥ 10 |

Same assay, conditions: pH 7.4, aqueous buffer, pH 7.4 Phosphate Buffer - Solubility, 200 mM Phosphate buffer pH 7.4

| SMILES | solubility [mg/mL] |
| --- | --- |
| CC[C@H](C)[C@H](NC(=O)[C@H](CO)NC(=O)[C@H](Cc1ccc(O)cc1)NC(=O)[C@H](CC(=O)O)NC(=O)[C@H](CO)NC(=O)[C@@H](NC(=O)[C@H](Cc1ccccc1)NC(=O)[C@@H](NC(=O)CNC(=O)[C@H](CCC(=O)O)NC(=O)C(C)(C)NC(=O)[C@H](Cc1ccc(O)cc1)NC)[C@@H](C)O)[C@@H](C)CC)C(=O)N[C@@H](C)C(=O)N[C@@H](CC(C)C)C(=O)N[C@@H](CCCCN)C(=O)N[C@@H](CCCNC(=N)N)C(=O)N[C@@H](CCCCNC(=O)CNC(=O)CNC(=O)CNC(=O)CNC(=O)CNC(=O)CNC(=O)CCCCCCCCCCCCCCCCC(=O)O)C(=O)N[C@@H](Cc1c[nH]cn1)C(=O)N[C@@H](CCC(N)=O)C(=O)NC(C)(C)C(=O)N[C@@H](CC(N)=O)C(=O)N[C@@H](Cc1ccccc1)C(=O)N[C@H](C(=O)N[C@@H](CC(N)=O)C(=O)N[C@@H](Cc1c[nH]c2ccccc12)C(=O)N[C@@H](CC(C)C)C(=O)N[C@@H](CC(C)C)C(=O)N[C@@H](C)C(=O)N[C@@H](CCC(N)=O)C(=O)N[C@@H](CCCNC(=N)N)C(=O)N1CCC[C@H]1C(=O)N[C@@H](CO)C(=O)N[C@@H](CO)C(=O)NCC(=O)N[C@@H](C)C(=O)N1CCC[C@H]1C(=O)N1CCC[C@H]1C(=O)N1CCC[C@H]1C(=O)N[C@@H](CO)C(=O)N[C@@H](CCCNC(=N)N)C(N)=O)C(C)C [Compound 280] | < 15 |
